{
  "source": "patent US8937065B2",
  "about": "“Compositions and methods for modulating a kinase” (Clevexel Pharma, priority 2011, dated 2015)",
  "key": {"[1]": {"tested_on": "CYP", "experiment": "CYP inhibition", "type": "in vitro ADME"}, "[2]": {"tested_on": "NF-kB pathway, Ramos cells", "experiment": "NFkB/Ramos reporter assay", "settings": "Homo sapiens, read-out: IC50 Cell-based selectivity: NF-kB pathway Ramos cells", "method": "Cells were plated on the day prior to the assay. Media required included:\n• 1. Cells were harvest from culture in Growth Medium and resuspend in Assay Medium at a density of 1.6×10^6 cells/ml. • 2. 32 μl per well of Assay medium were added to the cell-free control wells. 32 μl per well of a cell suspension were added to Unstimulated and Stimulated wells • 3. After plating, the plates were incubated in a 37° C./5% CO2 incubator for 16-20 hours. Preparation of DMSO Solution:\nA solution was prepared of 5% DMSO solution (10×) in Assay Media.\nA solution was prepared of 10×TNFα solution in Assay Medium. It is recommended to run a dose response curve to determine the EC80 for the Stimulation Solution.\n• 1. 4 μl of 10×DMSO solution was added to each well. • 2. 4 μl of Assay Medium was added to the Unstimulated wells and to the Cell-Free wells. • 3. 4 μl of the 10×TNFα was added to the Stimulated wells. • 4. The assay plate was incubated in a humidified 37° C./5% CO2 incubator for 5 hours. Substrate Loading and Incubation\nThis protocol is designed for loading cells with LiveBLAzer™-FRET B/G Substrate (CCF4-AM) or CCF2-AM. If alternative substrates are used it is recommended to follow the loading protocol provided with the substrate. […]\nAdded 934 μl Solution C to the combined solutions from above step and vortexed. • 3. […] The cells were counted and then spun cells down and resuspended in 4° C. […]"}, "[3]": {"tested_on": "RL cells", "experiment": "Proliferation of RL cells (Cell Titer-Glo)", "settings": "Homo sapiens, B cells, outcome-based, read-out: IC50 Proliferation RL cells (Non-Hodjkin lymphoma)"}, "[4]": {"tested_on": "B-cell lymphoma (Daudi cell line) xenograft", "experiment": "Mouse xenograft study with B-cell lymphoma (Daudi cell line)", "type": "in vivo", "settings": "28 days, Balb/c nude mice", "method": "The anti-tumor effect of compounds of the invention can be evaluated in vivo. For example, the anti-tumor effect of compound 7A was determined using a mouse xenograft study with B-cell lymphoma (Daudi cell line). Mice (n=8 all) were administered compound 7A over a period of 28 days. The compound was dosed at 100 mg/kg IP QD and 300 mg/kg PO QD. Tumor volume was measured over time.\nThe Daudi cell line culture was prepared using Daudi cell line (ATCC, USA), RPMI 1640 medium (Invitrogen, USA), and FBS (Invitrogen, Australia). […]\nThe mice were weighed at each dosing and recorded every day. Tumor size was measured every other day in two dimensions using a caliper, and the volume was expressed in mm^3 using the formula: V=0.5 a×b^2 where a and b were the long and short diameters of the tumor, respectively. […] Tumor volume, weight of dissected tumors, and mouse body weight were measured and recorded. […]\nThe difference between the mean values of tumor volume in treated and vehicle groups was analyzed for significance using one way ANOVA test at each time point after log transformation. The difference between the mean values of tumor weight in treated and vehicle groups was analyzed for significance using t-test. […]"}, "[5]": {"experiment": "Mouse PK (PO)", "settings": "in vivo"}, "[6]": {"experiment": "hLM T½ (stability)", "type": "in vitro ADME", "settings": "human, liver microsomes"}},
  "data": [
    {"compound": "O=C(CN1CCOCC1)Nc1cccc(-c2nc(-c3c[nH]c(C(=O)N4CCCC4)c3)cs2)c1", "note": "[7A, 2-morpholino-N-(3-(4-(5-(pyrrolidine-1-carbonyl)-1H-pyrrol-3-yl)thiazol-2-yl)phenyl)acetamide]", "values": [
      {"measurement": "CYP inhibition", "setting": "[1]", "value": ">10"},
      {"measurement": "IC50", "setting": "[2]", "value": "> 100", "unit": "µM"},
      {"measurement": "IC50", "setting": "[3]", "value": 26, "unit": "µM"},
      {"measurement": "tumor growth inhibition", "setting": "[4]; 100 mg/kg IP QD", "value": 89, "unit": "%"},
      {"measurement": "tumor growth inhibition", "setting": "[4]; 300 mg/kg PO QD", "value": 87, "unit": "%"},
      {"measurement": "bioavailability", "setting": "[5]; read-out: Mouse PK (PO) % F", "value": 88, "unit": "%"},
      {"measurement": "half-life", "setting": "[5]; read-out: Mouse PK (PO) T½ (converted)", "value": 3.2, "unit": "h"},
      {"measurement": "half-life", "setting": "[6]", "value": 0.6, "unit": "h"}
    ]}
  ]
}
